Measurements: ChEMBL document CHEMBL3603819, “Targeting zoonotic viruses: Structure-based inhibition of the 3C-like protease from bat coronavirus HKU4--The likely reservoir host to the human coronavirus that causes Middle East Respiratory Syndrome (MERS)” (Bioorg Med Chem, 2015)

What follows are compounds tested on Tylonycteris bat coronavirus HKU4. Settings: at 100 µM.

Row | Compound | inhibition [%]
1 | CC(C)(C)NC(=O)C(c1cccnc1)N(C(=O)c1ncco1)c1ccc(C(C)(C)C)cc1 (centres undefined) | 30
2 | CC(C)(C)NC(=O)C(c1cccnc1)N(C(=O)Cc1cccc2ccccc12)c1ccc(OCF)cc1 (centres undefined) | 21
3 | CC(C)c1ccc(N(C(=O)c2n[nH]c3ccccc23)C(C(=O)NC(C)(C)C)c2cccnc2)cc1 (centres undefined) | 21
4 | CC(C)(C)NC(=O)C(c1ccsc1)N(C(=O)Cn1nnc2ccccc21)c1ccc(NS(C)(=O)=O)cc1 (centres undefined) | 27
5 | CC(C)(C)NC(=O)C(c1ccsc1)N(C(=O)Cc1c[nH]c2ccccc12)c1ccc(OCF)cc1 (centres undefined) | 25
6 | CCC(C)Oc1ccc(N(C(=O)c2ccco2)C(C(=O)NC(C)(C)C)c2cccnc2)cc1 (centres undefined) | 20
7 | CC(C)(C)NC(=O)C(c1cccnc1)N(C(=O)c1ccc(C(F)(F)F)nc1)c1ccc(OCF)cc1 (centres undefined) | 15
8 | CC(C)(C)NC(=O)C(c1cccnc1)N(C(=O)c1ccco1)c1ccc(-c2c(F)cccc2F)cc1 (centres undefined) | 23
9 | CC(C)(C)NC(=O)C(c1cccnc1)N(C(=O)Cc1cccc2ccccc12)c1ccc(F)cc1 (centres undefined) | 22
10 | CC(C)(C)NC(=O)C(c1cccnc1)N(C(=O)c1ccco1)c1ccc(OCc2ccccc2)cc1 (centres undefined) | 14
11 | CC(C)(C)NC(=O)C(c1ccsc1)N(C(=O)Cn1cnc2ccccc21)c1ccc(C(C)(C)C)cc1 (centres undefined) | 15
12 | CC(C)(C)NC(=O)C(c1cccnc1)N(C(=O)c1ccco1)c1ccc(C(C)(C)C)cc1 (centres undefined) | 11
13 | CC(C)(C)NC(=O)C(c1cccnc1)N(C(=O)Cc1c[nH]c2ccccc12)c1ccc(OCF)cc1 (centres undefined) | 52
14 | COCC(=O)Nc1ccc(N(Cc2ccsc2)C(=O)Cn2nnc3ccccc32)cc1 | 91
15 | CC(C)(C)NC(=O)C(c1cccnc1)N(C(=O)c1ccc(Cl)o1)c1ccc(C(C)(C)C)cc1 (centres undefined) | 12
16 | CC(C)C(=O)Nc1ccc(N(Cc2ccsc2)C(=O)Cn2cc(-c3ccccc3)nn2)cc1 | 25
17 | O=C(NCc1ccccc1)C(c1cccc(F)c1)N(C(=O)Cn1nnc2ccccc21)C1CC2CCC1C2 (centres undefined) | 12
18 | CC(C)(C)NC(=O)C(c1cccnc1)N(C(=O)c1ccco1)c1ccc(-c2ccccn2)cc1 (centres undefined) | 15
19 | CC(C)(C)NC(=O)C(c1cccnc1)N(C(=O)c1c[nH]c2ccccc12)C1CC1 (centres undefined) | 49
20 | Cc1nc2ccccc2n1CC(=O)N(c1ccc(NS(C)(=O)=O)cc1)C(C(=O)NC(C)(C)C)c1ccsc1 (centres undefined) | 13
21 | CC(C)(C)C(=O)Nc1ccc(N(Cc2ccsc2)C(=O)Cn2nnc3ccccc32)cc1 | 67
22 | CC(C)(C)NC(=O)C(c1ccsc1)N(C(=O)Cn1nnc2ccccc21)c1ccc(NC(=O)C2CC2)cc1 (centres undefined) | 85
23 | CC(C)(C)NC(=O)C(c1cccnc1)N(C(=O)c1ccco1)c1ccc(-c2ccc(F)cc2F)cc1 (centres undefined) | 16

Row | Compound | inhibition [%]
24 | CC(C)(C)NC(=O)C(c1cccnc1)N(C(=O)Cc1cccnc1)C1CC1 (centres undefined) | 48
25 | CC(C)(C)NC(=O)C(c1ccsc1)N(C(=O)Cc1c[nH]c2ccccc12)c1ccc(F)cc1 (centres undefined) | 22
26 | CC(=O)Nc1ccc(N(C(=O)Cn2cc([Si](C)(C)C)nn2)C(C(=O)NC(C)(C)C)c2ccsc2)cc1 (centres undefined) | 20
27 | CC(C)(C)NC(=O)C(c1cccnc1)N(C(=O)c1ccco1)C12CC3CC(CC(C3)C1)C2 (centres undefined) | 18
28 | CC(C)(C)NC(=O)C(c1cccnc1)N(C(=O)c1cccc2c1CCCC2)c1ccc(OCF)cc1 (centres undefined) | 21
29 | CC(C)(C)NC(=O)C(c1cccnc1)N(C(=O)Cc1ccco1)C1CC1 (centres undefined) | 43
30 | CC(C)(C)c1ccc(N(Cc2cccnc2)C(=O)c2c[nH]cn2)cc1 | 28
31 | Cc1ccoc1C(=O)N(c1ccc(C(C)C)cc1)C(C(=O)NC(C)(C)C)c1cccnc1 (centres undefined) | 36
32 | CC(C)(C)NC(=O)[C@@H](c1cccnc1)N(C(=O)c1c[nH]cn1)c1ccc(C(C)(C)C)cc1 | 93
33 | CC(C)(C)NC(=O)C(c1ccsc1)N(C(=O)c1ccc(C(F)(F)F)nc1)c1ccc(C(C)(C)C)cc1 (centres undefined) | 17
34 | CC(=O)Nc1ccc(N(C(=O)Cn2ccnc2C)C(C(=O)NC(C)(C)C)c2ccsc2)cc1 (centres undefined) | 17
35 | CC(C)(C)NC(=O)C(c1ccsc1)N(C(=O)Cc1cccc2ccccc12)c1ccc(C(C)(C)C)cc1 (centres undefined) | 15
36 | CCC(=O)Nc1ccc(N(C(=O)Cn2nnc3ccccc32)C(C(=O)NC(C)(C)C)c2ccsc2)cc1 (centres undefined) | 34
37 | Cc1nccn1CC(=O)N(c1ccc(C(C)(C)C)cc1)C(C(=O)NC(C)(C)C)c1ccsc1 (centres undefined) | 11
38 | CC(C)(C)NC(=O)C(c1ccsc1)N(C(=O)Cn1nnc2ccccc21)c1ccc(N)cc1 (centres undefined) | 64
39 | CC(C)(C)NC(=O)C(c1ccsc1)N(C(=O)Cc1cccc2ccccc12)c1ccc(OCF)cc1 (centres undefined) | 17
40 | CC(C)(C)NC(=O)C(c1cccnc1)N(C(=O)c1ccco1)C1CC2CCC1C2 (centres undefined) | 16
41 | CC(C)COc1ccc(N(C(=O)c2ccco2)C(C(=O)NC(C)(C)C)c2cccnc2)cc1 (centres undefined) | 25
42 | CC(C)(C)NC(=O)C(c1cccnc1)N(C(=O)c1n[nH]c2ccccc12)c1ccc(F)cc1 (centres undefined) | 14
43 | COCCC(=O)Nc1ccc(N(Cc2ccsc2)C(=O)Cn2nnc3ccccc32)cc1 | 94
44 | CC(C)(C)NC(=O)C(c1cccnc1)N(C(=O)c1ccco1)c1ccc(/C=C/c2ccccc2)cc1 (centres undefined) | 21
45 | CC(C)(C)NC(=O)C(c1cccnc1)N(C(=O)c1ccc(F)cc1)c1ccc(C(C)(C)C)cc1 (centres undefined) | 21
46 | CC(C)(C)NC(=O)C(c1ccsc1)N(C(=O)c1n[nH]c2ccccc12)c1ccc(OC(F)F)cc1 (centres undefined) | 17

Row | Compound | inhibition [%]
47 | CC(C)C(=O)Nc1ccc(N(C(=O)Cn2nnc3ccccc32)C(C(=O)NC(C)(C)C)c2ccsc2)cc1 (centres undefined) | 76
48 | CCC(C)c1ccc(N(C(=O)c2ccco2)[C@H](C(=O)NC(C)(C)C)c2cccnc2)cc1 (some centres undefined) | 39
49 | COCC(=O)N(c1ccc(C(C)C)cc1)C(C(=O)NC(C)(C)C)c1cccnc1 (centres undefined) | 23
50 | Cc1ccc(C(=O)N(c2ccc(C(C)(C)C)cc2)C(C(=O)NC(C)(C)C)c2cccnc2)o1 (centres undefined) | 26
51 | CC(C)(C)NC(=O)C(c1ccsc1)N(C(=O)c1cccc2c1CCCC2)c1ccc(F)cc1 (centres undefined) | 17
52 | CC(C)(C)NC(=O)C(c1ccsc1)N(C(=O)Cc1cccnc1)C1CC1 (centres undefined) | 16
53 | CC(C)(C)NC(=O)C(c1cccnc1)N(C(=O)c1ccncc1)c1ccc(C(C)(C)C)cc1 (centres undefined) | 13
54 | CC(C)COC(=O)Nc1ccc(N(Cc2ccsc2)C(=O)Cn2nnc3ccccc32)cc1 | 75
55 | CC(C)(C)NC(=O)C(c1c[nH]cn1)N(C(=O)c1ccco1)c1ccc(C(C)(C)C)cc1 (centres undefined) | 9
56 | CC(C)(C)NC(=O)C(c1ccsc1)N(C(=O)Cn1cnc2ccccc21)c1ccc(NS(C)(=O)=O)cc1 (centres undefined) | 28
57 | CC(C)(C)NC(=O)C(c1cccnc1)N(C(=O)c1ccc(C(F)(F)F)o1)c1ccc(C(C)(C)C)cc1 (centres undefined) | 16
58 | CC(C)(C)c1ccc(N(Cc2cccnc2)C(=O)c2ccoc2)cc1 | 24
59 | CC(C)C(=O)Nc1ccc(N(C(=O)Cn2cnc3ccccc32)C(C(=O)NC(C)(C)C)c2ccsc2)cc1 (centres undefined) | 56
60 | CC(C)(C)NC(=O)C(c1ccsc1)N(C(=O)Cn1nnc2ccccc21)c1ccc(NC(=O)c2ccno2)cc1 (centres undefined) | 76
61 | CC(C)(C)NC(=O)C(c1ccsc1)N(C(=O)Cc1c[nH]c2ccccc12)c1ccc(C(C)(C)C)cc1 (centres undefined) | 31
62 | COc1ccccc1C(=O)N(c1ccc(C(C)(C)C)cc1)C(C(=O)NC(C)(C)C)c1cccnc1 (centres undefined) | 17
63 | CC(C)(C)NC(=O)C(c1ccc(C(C)(C)C)cc1)N(C(=O)c1ccco1)c1ccc(C(C)(C)C)cc1 (centres undefined) | 26
64 | CCC(=O)Nc1ccc(N(C(=O)Cn2cnc3ccccc32)C(C(=O)NC(C)(C)C)c2ccsc2)cc1 (centres undefined) | 68
65 | CCOc1ccc(N(C(=O)c2ccco2)C(C(=O)NC(C)(C)C)c2cccnc2)cc1 (centres undefined) | 12
66 | CC(C)(C)NC(=O)C(c1cccnc1)N(C(=O)Cc1cccc2ccccc12)C1CC1 (centres undefined) | 11
67 | Cc1nccn1CC(=O)N(c1ccc(N)cc1)C(C(=O)NC(C)(C)C)c1ccsc1 (centres undefined) | 17
68 | CC(C)(C)NC(=O)C(c1ccsc1)N(C(=O)c1ccco1)c1ccc(C(C)(C)C)cc1 (centres undefined) | 19
69 | CC(C)c1ccc(N(C(=O)Cc2cccc3ccccc23)C(C(=O)NC(C)(C)C)c2cccnc2)cc1 (centres undefined) | 26

Row | Compound | inhibition [%]
70 | CC(C)(C)NC(=O)C(c1cccnc1)N(C(=O)c1ccco1)c1ccc(-c2ccc(C#N)cc2)cc1 (centres undefined) | 14
71 | Cc1noc(C)c1-c1ccc(N(C(=O)c2ccco2)C(C(=O)NC(C)(C)C)c2cccnc2)cc1 (centres undefined) | 28
72 | CC(C)(C)NC(=O)C(c1cccnc1)N(C(=O)c1ccc(C(F)(F)F)cn1)C1CC1 (centres undefined) | 42
73 | CC(C)(C)NC(=O)C(c1ccsc1)N(C(=O)c1ccc(C(F)(F)F)cn1)c1ccc(F)cc1 (centres undefined) | 19
74 | CC(C)(C)NC(=O)C(c1cccnc1)N(C(=O)c1ccco1)c1ccc(Cc2ccccc2)cc1 (centres undefined) | 8
75 | O=C(Cn1nnc2ccccc21)N(Cc1ccsc1)c1ccc(NCc2ccccc2)cc1 | 64
76 | CC(C)(C)NC(=O)C(c1ccsc1)N(C(=O)c1cccc2c1CCCC2)C1CC1 (centres undefined) | 14
77 | CC(C)(C)NC(=O)C(c1cccnc1)N(C(=O)c1cccc2c1CCCC2)c1ccc(F)cc1 (centres undefined) | 22
78 | CC(C)(C)NC(=O)C(c1cccnc1)N(C(=O)c1cccnc1)c1ccc(C(C)(C)C)cc1 (centres undefined) | 13
79 | CC(C)(C)NC(=O)C(c1ccsc1)N(C(=O)Cc1cccc2ccccc12)c1ccc(F)cc1 (centres undefined) | 15
80 | CC(C)(C)NC(=O)C(c1ccsc1)N(C(=O)c1n[nH]c2ccccc12)C1CC1 (centres undefined) | 21
81 | COc1ccc(C(=O)N(c2ccc(C(C)(C)C)cc2)C(C(=O)NC(C)(C)C)c2cccnc2)cc1 (centres undefined) | 16
82 | O=C(Nc1ccc(N(Cc2ccsc2)C(=O)Cn2nnc3ccccc32)cc1)C1CCCCC1 | 88
83 | CC(C)(C)NC(=O)C(c1cccnc1)N(C(=O)c1n[nH]c2ccccc12)c1ccc(OC(F)F)cc1 (centres undefined) | 24
84 | O=C(Nc1ccc(N(Cc2ccsc2)C(=O)Cn2nnc3ccccc32)cc1)C1CCC1 | 94
85 | CCC(=O)Nc1ccc(N(Cc2ccsc2)C(=O)Cn2nnc3ccccc32)cc1 | 92
86 | CC(C)(C)NC(=O)C(c1ccsc1)N(C(=O)Cn1nnc2ccccc21)c1ccc(NC(=O)C2CCC2)cc1 (centres undefined) | 20
87 | CC(C)(C)NC(=O)C(c1ccccn1)N(C(=O)c1cccnc1)c1ccc(C(C)(C)C)cc1 (centres undefined) | 12
88 | CC(C)Oc1ccc(N(C(=O)c2ccco2)C(C(=O)NC(C)(C)C)c2cccnc2)cc1 (centres undefined) | 13
89 | CC(C)(C)NC(=O)C(c1ccsc1)N(C(=O)Cc1cccnc1)c1ccc(OCF)cc1 (centres undefined) | 29
